The values below come from US7569596B2, “Imidazolamino compounds” (National Health Research Institutes, priority 2002, dated 2009).

For the test, the system named is Murine leukemic P388 cells. The experiment in a line: In vivo anticancer activity, murine leukemic P388 model. On the set-up: species or system DBA/2J mice. The following applies: mice intravenously inoculated with P388 cells; given P.O. or I.V. at different doses. As to the method:
Evaluation of in vivo Anticancer Activity
The in vivo anticancer activities of the compounds were evaluated by the following murine leukemic P388 model. Inbred female DBA/2J mice of 4-5 week-old were purchased from the National Laboratory Animals Breeding and Research Center, Taipei, Taiwan, ROC. Murine leukemic P388 cells were purchased from the Japanese Collection of Research Bioresources, Japan. P388 cells were cultured and propagated in RPM11640 medium supplemented with 50 μM 2-mercaptoethanol and 10% fetal bovine serum. Mice at the age of 6 weeks were grouped as the treatment, negative control and positive control groups at 7 to 8 mice per group. All mice were intravenously inoculated with the P388 cells at one million per mouse one day before the treatments initiated. Compound 6 was dissolved in dimethyl sulfoxide (DMSO) and then diluted in 0.5% carboxymethyl cellulose or a Cremophor-based vehicle with the final concentration of DMSO less than 0.5%. Different treatment groups were orally (P.O.) or intravenously (I.V.) given, respectively, with Compound 6 of different doses for a pharmacological dose-response relationship. The mice of the negative control group were treated with the dosing vehicle only. […] The cancer cell-inoculated animals were monitored twice daily. Survival fractions of the mice were recorded. […]

Regarding `Nc1nc(-c2cccs2)cn1-c1nc(-c2ccccc2)cs1` [Compound 6, 1-(4-phenyl-1,3-thiazol-2-yl)-4-(2-thienyl)-1H-2-imidazolamine], the “survival rate of the inoculated mice” value was “increased the survival rate”.
